Experimental data published in patent publication US20230295109A1, “PYRIDINONE COMPOUNDS FOR THE TREATMENT OF AUTOIMMUNE DISEASE” (F. Hoffmann-La Roche AG, priority 2020, published 2023).

Tests used:
TLR9 = target: T1, TLR9 (Homo sapiens, UniProt Q9NR96); experiment: Human PBMC cell-based assay, TLR9 (CpG ODN 2216); design: These cells express TLR7, TLR8, or TLR9, and therefore are natural responders to respective ligand stimulation; endogenous in cells; host or cells: primary human PBMC from healthy donor whole blood; conditions: CpG ODN 2216 at 1 µM, overnight, cytokine levels, read-out: hPBMC/TLR9 IC50
T1 sequence (Q9NR96 26-1032): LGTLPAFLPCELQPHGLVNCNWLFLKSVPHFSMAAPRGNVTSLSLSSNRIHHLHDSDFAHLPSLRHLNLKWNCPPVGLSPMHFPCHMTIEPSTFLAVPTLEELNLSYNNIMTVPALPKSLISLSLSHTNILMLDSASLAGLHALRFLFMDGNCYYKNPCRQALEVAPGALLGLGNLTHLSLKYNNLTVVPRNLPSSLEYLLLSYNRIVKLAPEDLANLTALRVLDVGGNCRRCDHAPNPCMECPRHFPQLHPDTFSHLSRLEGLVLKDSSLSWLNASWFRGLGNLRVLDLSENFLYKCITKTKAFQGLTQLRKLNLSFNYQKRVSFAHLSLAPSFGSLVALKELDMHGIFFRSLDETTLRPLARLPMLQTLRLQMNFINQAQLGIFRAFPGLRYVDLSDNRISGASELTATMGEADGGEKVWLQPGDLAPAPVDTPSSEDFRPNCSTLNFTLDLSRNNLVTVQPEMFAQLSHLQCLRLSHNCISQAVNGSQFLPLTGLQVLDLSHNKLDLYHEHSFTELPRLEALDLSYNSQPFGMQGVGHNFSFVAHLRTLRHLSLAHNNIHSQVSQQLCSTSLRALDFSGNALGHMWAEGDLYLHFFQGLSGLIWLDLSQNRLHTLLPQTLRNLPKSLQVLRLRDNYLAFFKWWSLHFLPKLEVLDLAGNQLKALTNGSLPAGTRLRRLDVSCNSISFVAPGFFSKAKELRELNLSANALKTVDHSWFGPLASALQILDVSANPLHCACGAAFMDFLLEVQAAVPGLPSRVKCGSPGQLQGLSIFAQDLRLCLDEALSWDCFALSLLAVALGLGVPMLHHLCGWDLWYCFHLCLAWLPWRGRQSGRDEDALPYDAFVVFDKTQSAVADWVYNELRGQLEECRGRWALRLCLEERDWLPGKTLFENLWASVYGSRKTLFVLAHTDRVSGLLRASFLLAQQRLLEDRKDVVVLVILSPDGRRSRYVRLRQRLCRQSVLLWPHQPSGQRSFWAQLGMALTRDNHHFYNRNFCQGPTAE
Source text: Unlike the HEK reporter cell lines, human peripheral blood mononuclear cell (PBMC) represents primary human immune cells in blood mainly consisting of lymphocytes, monocytes, and dendritic cells. These cells express TLR7, TLR8, or TLR9, and therefore are natural responders to respective ligand stimulation. Upon activation of these TLRs, PBMCs secrete similar cytokines and chemokines in vitro and in vivo, and therefore the in vitro potency of a TLR7/8/9 antagonist in human PBMC is readily translatable to its pharmacodynamics response in vivo.
Human peripheral blood mononuclear cells (PBMC) were isolated from freshly-drawn lithium-heparinized (Lithium Heparin Plus blood Collection tube, BD Vacutainer®) healthy donor whole blood by density gradient (Ficoll-PaqueTM PLUS, GE Healthcare life Sciences). Briefly, […] was diluted with 25 mL PBS (without Ca^2+, Mg^2+) in a 50 mL conical tube with porous barrier (Leucosep tube, Greiner bio-one), where 15.5 mL Ficoll-Paque was under laid after spinning. Tubes were centrifuged for 20 minutes at 800×g (1946 rpm) with the brake in the off position, and PBMC were collected from the buffy coat. Cells were then washed twice in PBS, and red blood cells were lysed by suspension in 2 mL (Red Blood Cell Lysis Buffer, Alfa Aesar) for 5-10 minutes at room temperature. After a final wash in PBS, PBMC were resuspended at a final concentration of 2×10^6 cells/mL in RPMI-1640 media with GlutaMAXTM (Gibco) supplemented with 10% Fetal Bovine Serum (Sigma) and plated at 150µL/well (3×10^5 cells/well) in tissue culture treated round bottom 96-well plates (Corning Incorporated). Antagonist compounds (compounds of this invention) solubilized and serial diluted in 100% DMSO were added in duplicate to cells to yield a final concentration of 1% DMSO (v/v). PBMC were incubated with antagonist compounds for 30 minutes at 37° C., 5% CO2 before adding various TLR agonist reagents in 48 µL complete media per well as follows (final concentrations indicated): CpG ODN 2216 (InvivoGen) at 1 µM for TLR9, ORN 06/LyoVec (InvivoGen) at 1 µg/mL for TLR8 and R848 (InvivoGen) at 1 µg/mL for TLR7 and TLR8. PBMC were incubated overnight at 37° C. with 5% CO2. Cell culture supernatants were collected, and levels of various human cytokines were assessed by Luminex assay (ProcartaPlexTM Multiplex Immunoassay, Invitrogen) or ELISA procedure according to the manufacturer’s recommended protocol (eBioscience, ThermoFisher Scientific). Viability of the cells was also checked with Cell Viability Assay (CellTiter Glo®Luminescent Cell Viability Assay, Promega).

hERG channel = target: T2, hERG channel (Homo sapiens, UniProt Q12809); experiment: hERG channel inhibition assay (patch-clamp, CHOhERG cells); assay type: cell-based; conditions: for IC50 / IC20: CHOhERG cells, whole-cell patch-clamp; for IC20: human, CHO cells stably expressing hERG (CHOhERG); for hERG IC20 / TLR8 IC50 / hERG IC20 / TLR9 IC50 / hERG IC20 /TLR7 IC50: safety ratio
T2 construct: expressed in transfected cells; host or cells: CHO (Chinese hamster ovary), CHOhERG
T2 sequence (Q12809 whole entry): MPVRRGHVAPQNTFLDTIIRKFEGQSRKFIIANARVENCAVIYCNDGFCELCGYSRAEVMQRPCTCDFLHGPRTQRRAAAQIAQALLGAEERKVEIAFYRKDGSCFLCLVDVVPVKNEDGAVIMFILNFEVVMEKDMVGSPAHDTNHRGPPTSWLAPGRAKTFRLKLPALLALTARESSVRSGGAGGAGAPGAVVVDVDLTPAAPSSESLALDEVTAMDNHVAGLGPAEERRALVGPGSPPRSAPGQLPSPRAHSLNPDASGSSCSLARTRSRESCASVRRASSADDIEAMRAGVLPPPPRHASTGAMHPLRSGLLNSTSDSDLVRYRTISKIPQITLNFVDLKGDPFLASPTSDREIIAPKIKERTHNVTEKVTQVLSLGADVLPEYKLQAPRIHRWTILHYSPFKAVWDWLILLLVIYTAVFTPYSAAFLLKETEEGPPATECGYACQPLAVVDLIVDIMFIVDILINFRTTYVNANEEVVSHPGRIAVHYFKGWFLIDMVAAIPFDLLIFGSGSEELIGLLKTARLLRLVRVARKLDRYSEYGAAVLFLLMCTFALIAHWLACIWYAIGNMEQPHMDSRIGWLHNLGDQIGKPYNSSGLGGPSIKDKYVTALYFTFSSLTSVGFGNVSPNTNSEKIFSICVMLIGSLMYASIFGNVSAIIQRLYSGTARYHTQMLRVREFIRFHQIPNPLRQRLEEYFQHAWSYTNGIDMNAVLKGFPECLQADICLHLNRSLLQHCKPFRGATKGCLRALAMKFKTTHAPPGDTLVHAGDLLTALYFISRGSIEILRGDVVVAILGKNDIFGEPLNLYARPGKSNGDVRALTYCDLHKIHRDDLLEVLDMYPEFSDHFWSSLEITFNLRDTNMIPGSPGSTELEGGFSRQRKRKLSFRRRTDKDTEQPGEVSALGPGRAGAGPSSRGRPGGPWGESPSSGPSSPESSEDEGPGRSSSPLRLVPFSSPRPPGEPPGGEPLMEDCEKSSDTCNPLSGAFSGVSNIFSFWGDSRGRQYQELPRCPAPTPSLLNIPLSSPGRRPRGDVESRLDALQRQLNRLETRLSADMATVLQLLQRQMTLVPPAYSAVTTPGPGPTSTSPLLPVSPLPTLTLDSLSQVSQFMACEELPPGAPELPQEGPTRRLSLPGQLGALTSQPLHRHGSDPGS
Protocol: The hERG K^+ channels were cloned in humans and stably expressed in a CHO (Chinese hamster ovary) cell line. CHOhERG cells were used for patch-clamp (voltage-clamp, whole-cell) experiments. Cells were stimulated by a voltage pattern to activate hERG channels and conduct IKhERG currents (rapid delayed outward rectifier potassium current of the hERG channel). After the cells were stabilized for a few minutes, the amplitude and kinetics of IKhERG were recorded at a stimulation frequency of 0.1 Hz (6 bpm). Thereafter, the test compound was added to the preparation at increasing concentrations. For each concentration, an attempt was made to reach a steady-state effect, usually, this was achieved within 3-10 min at which time the next highest concentration was applied. The amplitude and kinetics of IKhERG are recorded in each concentration of the drug which were compared to the control values (taken as 100%). (references: Redfern WS, Carlsson L, Davis AS, Lynch WG, MacKenzie I, Palethorpe S, Siegl PK, Strang I, Sullivan AT, Wallis R, Camm AJ, Hammond TG. 2003; Relationships between preclinical cardiac electrophysiology, clinical QT interval prolongation and torsade de pointes for a broad range of drugs: evidence for a provisional safety margin in drug development. Cardiovasc. Res. 58:32-45, Sanguinetti MC, Tristani-Firouzi M. 2006; hERG potassium channels and cardiac arrhythmia. Nature 440:463-469, Webster R, Leishman D, Walker D. 2002; Towards a drug concentration effect relationship for QT prolongation and torsades de pointes. Curr. Opin. Drug Discov. Devel. 5:116-26).

CCc1nc(N2CCN(Cc3cnc(N4CC5(CNCCO5)C4)nc3)CC2)ccc1-c1cc(C)c(=O)n(C)c1 [Example 1, 5-[2-ethyl-6-[4-[[2-(5-oxa-2,8-diazaspiro[3.5]nonan-2-yl)pyrimidin-5-yl]methyl]piperazin-1-yl]-3-pyridyl]-1,3-dimethyl-pyridin-2-one]
IC50 (TLR9): 388 nM | IC50 (hERG channel): > 20000 nM | IC20 (hERG channel): > 10000 nM | hERG IC20 / TLR8 IC50 (hERG channel): >14285.2 | hERG IC20 / TLR9 IC50 (hERG channel): >14.2 | hERG IC20 /TLR7 IC50 (hERG channel): >1052.6

CCc1nc(N2CCN(Cc3ccc(N4CC5(CNCCO5)C4)nc3)CC2)ccc1-c1cc(C)c(=O)n(C)c1 [Example 2, 5-[2-ethyl-6-[4-[[6-(5-oxa-2,8-diazaspiro[3.5]nonan-2-yl)-3 pyridyl]methyl]piperazin-1-yl]-3-pyridyl]-1,3-dimethyl-pyridin-2-one]
IC50 (TLR9): 362 nM | IC50 (hERG channel): > 20000 nM | IC20 (hERG channel): > 10000 nM | hERG IC20 / TLR8 IC50 (hERG channel): >33000 | hERG IC20 / TLR9 IC50 (hERG channel): >47.1 | hERG IC20 /TLR7 IC50 (hERG channel): >961.8

CCc1nc(N2CCN(Cc3cnc(N4CC(C)(N)C4)nc3)CC2)ccc1-c1cc(C)c(=O)n(C)c1 [Example 3, 5-[6-[4-[[2-(3-amino-3-methyl-azetidin-1-yl)pyrimidin-5-yl]methyl]piperazin-1-yl]-2-ethyl-3-pyridyl]-1,3-dimethyl-pyridin-2-one]
IC50 (TLR9): 377 nM | IC50 (hERG channel): > 20000 nM | IC20 (hERG channel): > 10000 nM | hERG IC20 / TLR8 IC50 (hERG channel): >33000 | hERG IC20 / TLR9 IC50 (hERG channel): >31.4 | hERG IC20 /TLR7 IC50 (hERG channel): >724.6

Cc1cc(-c2ccc(N3CCN(Cc4cnc(N5CC6(CNCCO6)C5)nc4)CC3)nc2C(C)C)cn(C)c1=O [Example 6, 5-[2-isopropyl-6-[4-[[2-(5-oxa-2,8-diazaspiro[3.5]nonan-2-yl)pyrimidin-5-yl]methyl]piperazin-1-yl]-3-pyridyl]-1,3-dimethyl-pyridin-2-one]
IC50 (TLR9): 730 nM

Cc1cc(-c2ccc(N3CCN(Cc4ccc(N5CCNCC5)cn4)CC3)nc2C(C)C)cn(C)c1=O [Example 7, 5-[2-isopropyl-6-[4-[(5-piperazin-1-yl-2-pyridyl)methyl]piperazin-1-yl]-3-pyridyl]-1,3-dimethyl-pyridin-2-one]
IC50 (TLR9): 101 nM | IC50 (hERG channel): > 20000 nM | IC20 (hERG channel): 4700 nM | hERG IC20 / TLR8 IC50 (hERG channel): 16000 | hERG IC20 / TLR9 IC50 (hERG channel): 24.4 | hERG IC20 /TLR7 IC50 (hERG channel): 940

Cc1cc(-c2ccc(N3CCN(Cc4cnc(N5CCNCC5)nc4)CC3)nc2C(C)C)cn(C)c1=O [Example 9, 5-[2-isopropyl-6-[4-[(2-piperazin-1-ylpyrimidin-5-yl)methyl]piperazin-1-yl]-3-pyridyl]-1,3-dimethyl-pyridin-2-one]
IC50 (TLR9): 47 nM

Cc1cc(-c2ccc(N3CCN(Cc4ncc(N5CCNCC5)cn4)CC3)nc2C(C)C)cn(C)c1=O [Example 12, 5-[2-isopropyl-6-[4-[(5-piperazin-1-ylpyrimidin-2-yl)methyl]piperazin-1-yl]-3-pyridyl]-1,3-dimethyl-pyridin-2-one]
IC50 (TLR9): 115 nM

Cc1cc(-c2ccc(N3CCN4CCN(c5ccc(N6CCNCC6)nc5)CC4C3)nc2C(C)C)cn(C)c1=O (centres unmarked) [Example 16, 5-[2-isopropyl-6-[8-(6-piperazin-1-yl-3-pyridyl)-3,4,6,7,9,9a-hexahydro-1H-pyrazino[1,2-a]pyrazin-2-yl]-3-pyridyl]-1,3-dimethyl-pyridin-2-one]
IC50 (TLR9): 263 nM

Cc1cc(-c2ccc(N3CCC(N4CCNCC4)CC3)nc2C(C)C)cn(C)c1=O [Example 18, 5-[2-isopropyl-6-(4-piperazin-1-yl-1-piperidyl)-3-pyridyl]-1,3-dimethyl-pyridin-2-one]
IC50 (TLR9): 700 nM
